Like-named read-outs stand apart in the source and are kept apart here.
Target: TLR2 (Homo sapiens, UniProt O60603)
Assay: In vitro TLR2 functional bioassay (NF-κB luciferase, HEK293/hTLR2 cells)
Type: cell-based
Design: host or cells: HEK293 stably transfected with pUNO-hTLR2, transiently transfected with the pNifty-Luc reporter
Description: In Vitro TLR2 Functional Bioassay The in vitro TLR2 functional bioassay was developed and optimized for use in screening soluble compound libraries to identify both TLR2 agonists and antagonists. In this study, the TLR2 functional bioassay was used as a fast high throughput screening to identify TLR2 agonist ligands by measuring the inducing activity of NF-κB. HEK293/hTLR2 cells, highly overexpressing human TLR2, were used along with the parental HEK293, cells as a negative control. Cells were seeded at a density of 40,000 per well using a WellMate® Microplate dispenser (Thermo Fischer Scientific/Matrix) in black 96-well plates with opaque white wells (Perkin Elmer Wallac, Waltham, Mass.) and then incubated at 37° C. On day 2, the cells were transiently transfected with pNifty-Luc (InvivoGen), an NF-κB inducible reporter plasmid expressing the luciferase reporter gene (Zuany-Amorim, C., J., et al. Nat Rev Drug Discov, 2002. 1(10):797-807), using an optimized 4:1 ratio by volume of Fugene® HD Transfection Reagent (Roche Applied Science, Indianapolis, Ind.) to pNifty-Luc plasmid DNA (1 μg/mL). […] On day 4 after 24 hrs of peptide stimulation, luciferase induced activity by the induction of NF-κB was measured. Media was aspirated from the wells using an ELx405 Select plate washer (BioTek, Winooski, Vt.), 150 μg/mL D-luciferin (Gold Biotechnology, St. Louis, Mo.) was dispensed using the microplate dispensor; the plates were incubated at 37° C. for 5 min. The luminescence intensity was measured using the standard luminescence protocol on a Victor™ X4 plate-reader equipped with a plate stacker for readout of multiple plates at a time (PerkinElmer, Waltham, Mass.). For each in vitro TLR2 bioassay, at least three different experiments were performed in triplicate (n=3+). Data were analyzed with GraphPad Prism software and curves were generated with the appropriate nonlinear fit regression analysis.
The in vitro TLR2 functional bioassay was developed and optimized for use in high-throughput screening of soluble compound libraries to identify both TLR2 agonists and antagonists. The bioassay measures the induction of NF-κB signaling via TLR2 in HEK-293/hTLR2 cells and parental HEK-293 cells as a negative control. Cells were seeded at a density of 40,000 per well using a WellMate Microplate dispenser (Thermo Fisher Scientific/Matrix) in black 96-well plates with opaque white wells (PerkinElmer, Waltham, Mass.) and then incubated at 37° C. On day 2, the cells were transiently transfected with pNifty-Luc (InvivoGen, San Diego, Calif.), an NF-κB inducible reporter plasmid expressing the luciferase reporter gene[28] using an optimized 4:1 ratio by volume of FugeneHD Transfection Reagent (Promega, Madison, Wis.) to pNifty-Luc plasmid DNA (1 μg/mL). […] […] On day 4 after 24 h of peptide stimulation, luciferase induced activity by the induction of NF-κB was measured. Media was aspirated from the wells using an ELx405 Select CW plate washer (BioTek, Winooski, Vt.), 150 μg/mL D-luciferin (Gold Biotechnology, St. Louis, Mo.) was dispensed using the microplate dispensor; the plates were incubated at 37° C. for 5 min. The luminescence intensity was measured using the standard luminescence protocol on a Victor X4 Multilabel plate reader equipped with a plate stacker for readout of multiple plates at a time (PerkinElmer, Waltham, Mass.). […] Data were analyzed with GraphPad Prism software and curves were generated with the appropriate nonlinear fit regression analysis.

[1] = dose-response 0.001 ng/mL to 10 μg/mL, read-out: TLR2 Agonist Activity EC50
[2] = log(agonist) vs. normalized response, doses 0.01 ng/mL to 1 μg/mL, read-out: EC50

TLR2, sequence (O60603 21-784): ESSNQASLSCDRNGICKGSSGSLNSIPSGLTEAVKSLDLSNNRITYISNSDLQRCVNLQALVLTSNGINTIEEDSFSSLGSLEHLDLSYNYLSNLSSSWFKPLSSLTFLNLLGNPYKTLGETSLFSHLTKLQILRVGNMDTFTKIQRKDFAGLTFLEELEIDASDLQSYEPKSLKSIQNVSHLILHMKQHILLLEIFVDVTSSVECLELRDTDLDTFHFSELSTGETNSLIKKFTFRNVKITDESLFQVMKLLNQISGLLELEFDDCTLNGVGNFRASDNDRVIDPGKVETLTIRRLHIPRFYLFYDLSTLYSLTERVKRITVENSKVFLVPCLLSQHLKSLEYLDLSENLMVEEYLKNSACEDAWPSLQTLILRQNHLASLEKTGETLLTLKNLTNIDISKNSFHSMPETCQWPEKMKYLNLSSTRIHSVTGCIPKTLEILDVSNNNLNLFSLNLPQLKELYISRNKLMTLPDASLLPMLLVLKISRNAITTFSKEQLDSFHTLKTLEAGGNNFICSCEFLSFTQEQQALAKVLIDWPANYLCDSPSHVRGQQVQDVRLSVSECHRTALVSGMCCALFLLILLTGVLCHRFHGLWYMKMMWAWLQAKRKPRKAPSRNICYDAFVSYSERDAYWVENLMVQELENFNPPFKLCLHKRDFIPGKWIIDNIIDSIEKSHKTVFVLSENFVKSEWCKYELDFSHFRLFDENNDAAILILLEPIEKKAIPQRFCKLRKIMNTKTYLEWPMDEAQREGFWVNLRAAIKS
TLR2, sequence (Q9Y2C9 32-796 partner): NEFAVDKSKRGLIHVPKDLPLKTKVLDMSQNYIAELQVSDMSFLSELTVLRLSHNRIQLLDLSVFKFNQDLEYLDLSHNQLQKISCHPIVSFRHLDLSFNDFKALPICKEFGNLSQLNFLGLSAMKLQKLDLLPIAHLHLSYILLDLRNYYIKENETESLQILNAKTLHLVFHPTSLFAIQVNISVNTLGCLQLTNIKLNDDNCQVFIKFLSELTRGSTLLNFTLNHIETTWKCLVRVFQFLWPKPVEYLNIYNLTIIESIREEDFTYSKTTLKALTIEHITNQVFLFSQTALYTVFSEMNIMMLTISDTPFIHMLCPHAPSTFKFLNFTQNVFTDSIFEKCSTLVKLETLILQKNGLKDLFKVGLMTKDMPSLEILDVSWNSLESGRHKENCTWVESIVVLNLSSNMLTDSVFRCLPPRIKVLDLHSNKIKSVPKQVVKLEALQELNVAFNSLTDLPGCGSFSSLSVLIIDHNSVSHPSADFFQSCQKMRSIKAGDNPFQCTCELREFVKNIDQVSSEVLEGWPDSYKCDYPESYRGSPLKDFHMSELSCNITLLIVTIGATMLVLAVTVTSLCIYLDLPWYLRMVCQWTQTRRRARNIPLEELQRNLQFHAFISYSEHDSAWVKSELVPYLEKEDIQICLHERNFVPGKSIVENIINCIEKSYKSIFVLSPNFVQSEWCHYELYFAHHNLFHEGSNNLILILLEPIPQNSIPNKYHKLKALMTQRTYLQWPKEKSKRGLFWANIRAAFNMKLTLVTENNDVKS

EC50 [1] [nM] | EC50 [2] [nM] | luciferase activity relative to cells incubated with no ligand (24 h post ligand stimulation, n=6) [fold] | Compound
3.7 | 3.66 | – | CCCCCCCCCCCCCCCC(=O)OCC(CSC[C@H](N)C(=O)N[C@@H](CO)C(=O)N[C@@H](CCCCN)C(=O)N[C@@H](CCCCN)C(=O)N[C@@H](CCCCN)C(=O)N[C@@H](CCCCN)C(=O)O)OC(=O)CCCCCCCCCCCCCCC (mixture of isomers) [Pam2CSK4, S-[2,3-bis(palmitoyloxy)-(2RS)-propyl]-[R]-cysteinyl-[S]-seryl-[S]-lysyl-[S]-lysyl-[S]-lysyl-[S]-lysine, reference compound]
23 | 22.5 | 50 | CCCCCCCCCCCCCCCC(=O)N[C@@H](CSCC(COC(=O)CCCCCCCCCCCCCCC)OC(=O)CCCCCCCCCCCCCCC)C(=O)N[C@@H](CO)C(=O)N[C@@H](CCCCN)C(=O)N[C@@H](CCCCN)C(=O)N[C@@H](CCCCN)C(=O)N[C@@H](CCCCN)C(=O)O (mixture of isomers) [Pam3CSK4, N-Palmitoyl-S-[2,3-bis(palmitoyloxy)-(2RS)-propyl]-[R]-cysteinyl-[S]-seryl-[S]-lysyl-[S]-lysyl-[S]-lysyl-[S]-lysine, reference compound]
